Columns and labels:
Format in all cases: in vivo, rat
[1] = test system: Sprague dawley rats; experiment: Hyperinsulinemic euglycemic clamps of dexamethasone treated rats; conditions: for Insulin, During Clamp / FFA / Glucose, Before Clamp / Insulin, Before Clamp: plasma, mean ± standard error, n=4; for Insulin, During Clamp: steady state; for FFA: Before Clamp by layout
Description: (A) Sprague-Dawley rats were treated with myriocin (300 μg/Kg, IP, solid bars) or saline (open bars) for two weeks prior to giving administering dexamethasone (40 μg/Kg, IP) or vehicle (5% ethanol) every 12 hours for 36 hours. Animals were euthanized by CO2 inhalation, livers were removed, and ceramide levels were assessed as described in SOM-Methods. Shown are mean ceramide levels+/−S.E.M, n=6 per group. The asterisk denotes that the sample was statistically different from vehicle-treated controls, p<0.05, student's t-test. (B) Livers were obtained as in A, above, and protein and mRNA were extracted as described in SOM-Methods. Levels of transcripts (solid bars) encoding serine palimitoyl transferase isoforms 1 and 2 (SPT1 and SPT2), dihydroceramide synthases (DCS) TL1, UOG, and TRH3, glucosylceramide synthase (GCS), and acid ceramidase (AC) transcripts were obtained by reverse-transcriptase polymerase chain reaction, normalized to β-actin. SPT2 protein levels (white bars) were detected by immunoblotting with an antibody from Cayman Chemicals (Ann Arbor, Mich.) and quantified on a Kodak Image Station 2000R (Rochester, N.Y.). Data represent the fold-change in transcript or protein in dexamethasone-treated animals relative to vehicle controls. […] (C and D) Rats were challenged with glucose (1 g/kg) given intraperitoneally (IP) following treatment with dexamethasone (squares), ethanol carrier (triangles), myriocin (open shapes), or saline (solid shapes) as in A, above. Tail vein blood (3 μl) was sampled for glucose (C)(using the Glucometer Elite from Bayer Corp., Tarrytown, N.Y.) or insulin (D) (using an Elisa kit from Linco Diagnostics, Springfield, Mo.). […] (E-G) Hyperinsulinemic euglycemic clamps were performed on animals (n=4 per group) treated as in A, above, as described in SOM-Methods. Data from animals receiving myriocin are depicted in solid bars. (E) The glucose infusion rate required to maintain normal glycemia during insulin infusion ([…]) was calculated as the average infusion rate during the 60 minute steady state. (F) Hepatic glucose output was estimated by the disappearance of [^14C] glucose from a bolus dose given during the steady state minus the glucose infusion rate. (G) Disappearance of a bolus dose of [^3H] 2-deoxyglucose from the bloodstream was used to estimate the rate of whole body glucose uptake.
(§1) To definitively evaluate effects on insulin sensitivity, as well as to distinguish whether the treatment protocols differentially affected glucose uptake in skeletal muscle or hepatic output by the liver, hyperinsulinemic-euglycemic clamps with D-[U-^14C] glucose and 2-deoxy-D-[2,6-^3H] glucose tracers were performed.
Clamps were performed in conscious unrestrained animals using swivels and tethers (Instech, Plymouth Meeting, Pa.) to allow uninterrupted movement of the animal without disruption of infusion lines. Hyperinsulinemia was initiated by intravenous infusion of insulin (10 mU/kg/min at a flow rate of 4 μL/min). Blood was sampled from arterial lines in 7 minute intervals and analyzed with a Beckman Glucose analyzer II (Beckman Coulter, Fullerton, Calif.). Euglycemia was maintained by variable infusion of 20% dextrose. Steady state was achieved approximately 90 minutes after initiating hyperinsulinemia and maintained for 30 minutes. Glucose infusion rates were calculated as the average glucose infusion rate during the 30 minute steady state. Additional blood samples were taken before initiating hyperinsulinemia and at the end of the clamp for analysis of insulin and free fatty acids.

[2] = test system: male Sprague Dawley Rats; experiment: Insulin tolerance test in dexamethasone-treated rats; conditions: dexamethasone 400 μg/kg IP 24 and 12 hours prior; myriocin 0.3 mg/kg/2 days for 1 week
Description: Following an overnight fast, insulin was injected (20 U, IP) and whole blood glucose was determined by glucometer. Values are presented as the ratio of measured blood glucose to fasting blood glucose.
as §1

[3] = test system: Sprague-Dawley rats; experiment: Lipid infusion with hyperinsulinemic euglycemic clamps; conditions: for Glucose, During Clamp / FFA, Before Clamp / FFA, Before Infusion / FFA, During Clamp / Glucose, Before Clamp / Glucose, Before Infusion / Insulin, Before Clamp / Insulin, Before Infusion / Insulin, During Clamp: plasma, mean ± standard error, n=4; for Glucose, During Clamp: 30 minute steady state
Text: The more common mechanism by which insulin resistance likely develops in the obese is through the accumulation of fats in tissues not-suited for lipid storage. Indeed, intramyocellular lipid levels inversely correlate with insulin sensitivity, and are one of the best predictors of insulin resistance in humans. To mimic this condition in rats, a 20% lard oil-heparin infusate was delivered into the bloodstream of Sprague-Dawley rats via jugular catheters. […] To assess muscle insulin sensitivity during the infusion, hyperinsulinemic-euglycemic clamps were performed on conscious, unrestrained rats during the terminal 90 minutes of the protocol. Lard oil infusion decreased insulin-stimulated glucose disposal to 47% of glycerol treated control subjects (FIG. 3C). […] Differences in the glucose infusion rats could not be accounted for by the slight differences in the glucose concentration that was achieved during the clamp nor to differences in steady-state insulin concentrations (Table 3).
Male Sprague-Dawley rats (˜250 grams) were randomly divided into nine different groups. Glycerol, 20% lard oil, or 20% soy oil emulsions were prepared as previously described (Stein 1997) and infused at a constant rate of 5 mL/Kg/hour. To activate lipoprotein lipase, heparin (6 units/hour) was added to the triglyceride emulsions. Lipids were infused in animals treated with control injections (normal saline), myriocin (100 μg/Kg IP) or cycloserine (50 mg/Kg IP). Drugs were given 12 hours prior to lipid infusion and equivalent doses were given intravenously at the time of infusion. […] Following lipid infusion animals were deeply anesthetized with sodium pentobarbital and soleus muscles were rapidly dissected out and rapidly frozen in liquid nitrogen.
Clamps were performed in conscious unrestrained animals using swivels and tethers (Instech, Plymouth Meeting, Pa.) to allow uninterrupted movement of the animal without disruption of infusion lines. Hyperinsulinemia was initiated by intravenous infusion of insulin (10 mU/kg/min at a flow rate of 4 μL/min).

[4] = clamp, dexamethasone with or without myriocin pretreatment
[5] = Dexamethasone-treated (Saline or Myriocin)
[6] = Intralipid infusion, with or without myriocin or cycloserine
[7] = lard oil infusion, with or without myriocin or cycloserine

For `CCCCCCC(=O)CCCCCC/C=C/C[C@@H](O)[C@H](O)[C@@](N)(CO)C(=O)O` [Myriocin], the “2-deoxyglucose uptake into skeletal muscle / insulin resistance in skeletal muscle” value [1, 4] was “partially blocked”, the “insulin-induced suppression of hepatic glucose output” value [1, 4] was “completely prevented” and the “insulin-responsiveness (glucose infusion rate, hepatic glucose output, whole body glucose uptake; FIG. 1E-G)” value ([1]; clamp, n=4 per group, p<0.05) was “significantly restored insulin-responsiveness”. The “Insulin, During Clamp” value [1, 5] was 5.4 ± 1.4 ng/mL, the “Insulin, During Clamp” value ([1]; Dexamethasone: Control) was 6.4 ± 0.5 ng/mL and the FFA [1, 5] was 176 ± 34 µM. The FFA ([1]; Dexamethasone: Control) was 258 ± 29 µM, the “Glucose, Before Clamp” value [1, 5] was 137.0 ± 2.1 mg/dL and the “Insulin, Before Clamp” value [1, 5] was 2.34 ± 0.49 ng/mL. The “Glucose, Before Clamp” value ([1]; Dexamethasone: Control) was 123.6 ± 7.7 mg/dL, the “Insulin, Before Clamp” value ([1]; Dexamethasone: Control) was 2.05 ± 0.25 ng/mL and the “insulin sensitivity in insulin tolerance tests” value [2] was “fully negated”. For the same molecule, the “insulin-stimulated glucose disposal / insulin resistance” value [3, 6] was “Neither myriocin nor cycloserine prevented”, the “muscle DAG levels” value [3, 6] was “Neither myriocin nor cycloserine prevented” and the “ceramide in skeletal muscle” value [3, 7] was “blocked ceramide synthesis”. For the same molecule, the “diacylglycerol (DAG) in muscle” value [3, 7] was “Neither myriocin nor cycloserine reduced DAG”, the “glucose utilization in clamp” value ([3]; lard-infused animals) was “restored glucose utilization” and the “Glucose, During Clamp” value ([3]; Lipid: Glycerol) was 111.2 ± 6.6 mg/dL. The “Glucose, During Clamp” value ([3]; Lipid: Lard oil (PBS or drug)) was 108.4 ± 1.0 mg/dL, the “Glucose, During Clamp” value ([3]; Lipid: Soy oil (PBS or drug)) was 108.3 ± 0.4 mg/dL and the “FFA, Before Clamp” value ([3]; Lipid: Glycerol) was 0.455 ± 0.13 mM. The “FFA, Before Infusion” value ([3]; Lipid: Glycerol) was 1.22 ± 0.25 mM, the “FFA, During Clamp” value ([3]; Lipid: Glycerol) was 0.872 ± 0.75 mM and the “Glucose, Before Clamp” value ([3]; Lipid: Glycerol) was 117.7 ± 9.1 mg/dL. The “Glucose, Before Infusion” value ([3]; Lipid: Glycerol) was 103.0 ± 10.6 mg/dL, the “Insulin, Before Clamp” value ([3]; Lipid: Glycerol) was 1.90 ± 0.71 ng/mL and the “Insulin, Before Infusion” value ([3]; Lipid: Glycerol) was 0.436 ± 0.03 ng/mL. The “Insulin, During Clamp” value ([3]; Lipid: Glycerol) was 8.02 ± 2.52 ng/mL, the “FFA, Before Clamp” value ([3]; Lipid: Lard oil (PBS or drug)) was 1.52 ± 0.49 mM and the “FFA, Before Infusion” value ([3]; Lipid: Lard oil (PBS or drug)) was 0.912 ± 0.30 mM. The “FFA, During Clamp” value ([3]; Lipid: Lard oil (PBS or drug)) was 2.427 ± 0.30 mM, the “Glucose, Before Clamp” value ([3]; Lipid: Lard oil (PBS or drug)) was 123.3 ± 3.8 mg/dL and the “Glucose, Before Infusion” value ([3]; Lipid: Lard oil (PBS or drug)) was 101.0 ± 11.4 mg/dL. For the same molecule, the “Insulin, Before Clamp” value ([3]; Lipid: Lard oil (PBS or drug)) was 1.90 ± 0.50 ng/mL, the “Insulin, Before Infusion” value ([3]; Lipid: Lard oil (PBS or drug)) was 0.407 ± 0.47 ng/mL and the “Insulin, During Clamp” value ([3]; Lipid: Lard oil (PBS or drug)) was 17.02 ± 3.79 ng/mL. For the same molecule, the “FFA, Before Clamp” value ([3]; Lipid: Soy oil (PBS or drug)) was 1.58 ± 0.57 mM, the “FFA, Before Infusion” value ([3]; Lipid: Soy oil (PBS or drug)) was 1.01 ± 0.10 mM and the “FFA, During Clamp” value ([3]; Lipid: Soy oil (PBS or drug)) was 1.80 ± 0.44 mM. For the same molecule, the “Glucose, Before Clamp” value ([3]; Lipid: Soy oil (PBS or drug)) was 105.0 ± 4.6 mg/dL, the “Glucose, Before Infusion” value ([3]; Lipid: Soy oil (PBS or drug)) was 109.3 ± 10.4 mg/dL and the “Insulin, Before Clamp” value ([3]; Lipid: Soy oil (PBS or drug)) was 2.46 ± 1.1 ng/mL. The “Insulin, Before Infusion” value ([3]; Lipid: Soy oil (PBS or drug)) was 0.305 ± 0.08 ng/mL and the “Insulin, During Clamp” value ([3]; Lipid: Soy oil (PBS or drug)) was 11.55 ± 2.91 ng/mL.

Source: US20100048714A1, “Methods and Compositions Related to Inhibition of Ceramide Synthesis” (University of Utah Research Foundation, priority 2006, published 2010)
